PubChem BioAssay AID434955 (Southern Research Specialized Biocontainment Screening …, 2010)

Tested on: M. tuberculosis H37Rv growth with meropenem, percent inhibition
Assay: beta-lactam sensitization of Mtb H37Rv, H37Rv (AID 434955)

Row | Structure (SMILES) | IC90 [µM]
1 | Cc1cc(C)cc(SCc2noc(C(=O)NC(C)C)c2C(=O)O)c1 | 27.3
2 | Cc1cc(Br)ccc1NC(=O)CN1C(=O)C2CC=CCC2C1=O (stereo not drawn) | 38.7
3 | CCN(CC)CCCNC(=O)c1c(O)c2ccccc2n(Cc2ccccc2)c1=O | 13.8
4 | C=C(C)C(=O)O[C@H]1C/C(C)=C\C(=O)/C=C(\C)[C@H](O)[C@@H]2OC(=O)C(=C)[C@@H]21 | 31.3
5 | CC1CCN(CC(CS(=O)(=O)c2ccc([N+](=O)[O-])cc2)N2CCC(C)CC2)CC1 (stereo not drawn) | 31.5
6 | CC[C@@](C)(NS(=O)(=O)OCC(Cl)(Cl)Cl)c1ccccc1 | 54.8
7 | CCC(CC)c1nnc(NC(=O)c2ccc(N3CCCCC3)c([N+](=O)[O-])c2)s1 | 44
8 | O=C(CSC1CS(=O)(=O)c2cc([N+](=O)[O-])ccc21)NNC(=O)c1ccccc1 (stereo not drawn) | 13.3
9 | O=c1c2cc(Cl)ccc2[nH]c(=S)n1Cc1cccs1 | 13.2
10 | O=C(NCC1COc2ccccc2O1)C1CCC(CNc2c(N3CCCCC3)c(=O)c2=O)CC1 (stereo not drawn) | 26.7
11 | CCCOc1ccc(C(=O)CCN2CCCCC2)cc1 | 36.4
12 | C=C(C)C1Cc2c(C)nn(-c3cccc4ccccc34)c2C1 (stereo not drawn) | 47.4
13 | O=C(Cc1cccc2ccccc12)N/N=C/c1ccc(O)c([N+](=O)[O-])c1 | 31.6
14 | O=c1oc(-c2cccs2)nc2sc3c(c12)CCCC3 | 29.7
15 | Cc1cc(C(=O)CSc2nnnn2-c2ccccc2)c(C)n1-c1ccc2c(c1)OCO2 | 60.9
16 | COc1ccccc1-c1cc(C(=O)Nc2c(C)n(C)n(-c3ccccc3)c2=O)no1 | 19.5
17 | COc1cc(/C(C)=N\NC(N)=S)cc(OC)c1OC | 19.6
18 | CCOC(=O)c1nc(N2CCN(C(=O)OCC)CC2)c2c3c(sc2n1)CCCC3 | 40.9
19 | COc1cccc(/C=N/NC(=O)c2cnccn2)c1O | 13.9
20 | CC(=O)Nc1ccc(SCC(=O)c2cc(C)n(C)c2C)cc1 | 53.6
21 | O=C(CCl)N(c1ccccc1)C1CCS(=O)(=O)C1 (stereo not drawn) | 13.9

Row | Structure (SMILES) | IC90 [µM]
22 | CCCc1cc(NC(=O)COC(=O)c2nccnc2N)n(-c2ccccc2)n1 | 50.8
23 | Cc1cc(C(=O)CN2C(=O)NC(C)(CC(C)C)C2=O)c(C)n1-c1ccc2c(c1)OCO2 (stereo not drawn) | 96.4
24 | Cc1[nH]n(-c2ccccc2)c(=O)c1/C=N/NC(=O)c1ccoc1C | 3.01
25 | CC(C)(C)c1nn(-c2ccccc2)c2[nH]c(=O)c(CNc3ccc4c(c3)OCCO4)cc12 | 99.7
26 | CCn1cc(C(=O)O)c(=O)c2cc(F)c(N3CCN(C(=S)NC(=O)c4ccccc4C)CC3)cc21 | 16
27 | Cc1cccc(N2CCN(CC3CCCCC3)CC2)c1C | 53.2
28 | O=C(N/N=C/c1c(O)n(Cc2ccc(F)cc2)c(=S)[nH]c1=O)c1ccncc1 | 9.8
29 | CC1(C)CC(CCNC(=O)CCl)(c2ccccc2)CCO1 (stereo not drawn) | 8.14
30 | O=C(OCn1nnc2ccccc2c1=O)c1ccc2c(=O)n3c(nc2c1)CCC3 | 26.1
31 | CCN(CC)C(=O)CSc1nnc2nnc3cc(OC)ccc3n12 | 13.4
32 | O=C(O)CSc1ncnc2c1sc1nc(-c3ccccc3)c3c(c12)CCC3 | 14.2
33 | Cc1ccc(C)c(N2CCN(C3CCCC(C)C3)CC2)c1 (stereo not drawn) | 48.2
34 | O=[N+]([O-])c1cc(Cl)cc(/C=N/NC(=S)Nc2cc(S(=O)(=O)N3CCOCC3)ccc2Cl)c1O | 29.3
35 | Cc1c(OCc2ccc(C(=O)O)cc2)ccc2c(-c3ccccc3)cc(=O)oc12 | 2.09
36 | CC(C)(C)C1=Nn2c(nnc2-c2ccccc2F)SC1 | 78.3
37 | COc1cccc(/C=C/c2[nH]c(=O)[nH]c(=O)c2[N+](=O)[O-])c1O | 15.9
38 | Cc1cc(C)c(OCC(=O)Nc2nc3ccccc3[nH]2)c(C)c1 | 65.2
39 | Cc1cccc2c(C(=O)n3cccn3)cc(-c3ccccc3Cl)nc12 | 26.8
40 | O=C1S/C(=C\C=C\c2ccco2)C(=O)N1c1ccccc1 | 77.6
41 | Cc1cccc(CSc2nnc(C)c(=O)n2N)c1 | 9.9
42 | Cc1nn(-c2ccccc2)c(Cl)c1CN(C(=O)CCl)c1cccc2ccccc12 | 48.2

Row | Structure (SMILES) | IC90 [µM]
43 | CCC(C)NCCOCCOc1ccc(Cl)c2ccccc12 (stereo not drawn) | 50.7
44 | Cc1ccc(C(C)C)c(OCc2ccc(C(=O)N/N=C/c3ccc(C(=O)O)cc3)cc2)c1 | 49.5
45 | Cc1ccc(Nc2nc(N)nc(CC#N)n2)cc1 | 92.7
46 | C/C(=N\NC(=O)c1ccncc1)c1c(O)n(-c2ccccc2)c(=O)[nH]c1=O | 3.94
47 | c1ccc(-c2n[nH]c3c2CCC3)cc1 | 46.3
48 | CC1CCCN(C(=O)C2CCN(c3ncnc4c3nc3n4CCCCC3)CC2)C1 (stereo not drawn) | 49.7
49 | CCCCNC(=O)c1onc(CSc2ccc(F)c(F)c2)c1C(=O)O | 56.8
50 | O=C1c2ccccc2N2C(=O)c3ccccc3C2N1O (stereo not drawn) | 56.4
51 | O=C1C(Cl)=C(N2CCCCCC2)C(=O)N1c1ccc(Br)cc1 | 19.4
52 | C/C(=N/NC(=O)c1cccs1)c1c(C)[nH]n(-c2nc3ccccc3s2)c1=O | 1.58
53 | CC1CCN(C(=S)NC(=O)c2ccccc2)CC1 | 13.6
54 | Nc1ncnc2c1c(-c1ccc(Oc3ccccc3)cc1)cn2C1CCCC1 | 60.3
55 | Nc1ccc(C(=O)O)c(O)c1 | 1.88
56 | O=C1COc2ccc(C(=O)/C=C/c3ccccc3)cc2N1 | 12.2
57 | O=c1cc(C(F)(F)F)c2sc(N3CCCCC3)nc2[nH]1 | 49.3
58 | Cc1cc(C2C(=O)c3ccccc3C2=O)c(C)c(C)c1C | 16.4
59 | COc1ccc(C(=O)CN(C(=O)c2ccc(Cl)cc2)N2C(=O)c3ccccc3C2=O)cc1 | 22.4
60 | COc1cccc(C(=O)C2CCCN(Cc3ccccn3)C2)c1 (stereo not drawn) | 97.5
61 | c1ccc2c(c1)Cn1nc(Cc3nc4c(s3)CCCC4)nc1-2 | 53
62 | COc1ccccc1NS(=O)(=O)c1cccc(N2CC(O)=C(c3ccccc3)C2=N)c1 | 16
63 | CC/C(=N\NC(=O)c1ccc(-c2ccccc2)cc1)C12CC3CC(CC(C3)C1)C2 | 43.7

Row | Structure (SMILES) | IC90 [µM]
64 | CCOC(=O)C1CSC(CC(=O)Nc2ccc(Cl)c(Cl)c2)C(=O)N1 (stereo not drawn) | 35.4
65 | COc1ccccc1C(c1c(N)n(C)c(=O)n(C)c1=O)C(C)[N+](=O)[O-] (stereo not drawn) | 18
66 | Cc1ccc(CN2C(=O)N/C(=C\c3ccc(-c4ccc(C(=O)O)cc4C)o3)C2=O)cc1 | 14.7
67 | Nc1nc(Sc2ncccc2[N+](=O)[O-])n[nH]1 | 77.1
68 | Cc1c(C(=O)NCCC2=CCCCC2)sc2ncnc(N3CCCCC3C)c12 (stereo not drawn) | 52
69 | CCOC(=O)c1c(NC(=O)COC(=O)c2ncc(Cl)c(Cl)c2Cl)sc(C(=O)N(C)C)c1C | 27.7
70 | O=C(CSc1nnc(-c2ccncc2)o1)c1cccc([N+](=O)[O-])c1 | 45.4
71 | COCc1cc(=O)n2[nH]cc(-c3ccccc3)c2n1 | 15.5
72 | COC(=O)c1sc(-c2ccc(Cl)cc2)cc1NC(=O)COCC(=O)O | 44.8
73 | CN1c2ccccc2C(=O)NC1c1ccc([N+](=O)[O-])s1 (stereo not drawn) | 33.3
74 | S=C(NNc1ccc2ccccc2c1)NC1CCCCC1 | 41.3
75 | CC(=O)Nc1ccc(S(=O)(=O)Nc2cccc3cccnc23)cc1 | 43.3
76 | C=C1C(=O)O[C@@H]2[C@H]1[C@@H](OC(=O)/C(C)=C/C)C/C(C)=C\C(=O)/C=C(\C)[C@@H]2O | 25.2
77 | Cc1cc(C=C2C(=O)NC(=S)NC2=O)c(C)n1-c1ccc2c(c1)OCO2 | 14.5
78 | Cc1cc(C)c(-c2c(O)c3ccccc3n(C)c2=O)c(C)c1 | 42.2
79 | C=CCc1cc(Cl)ccc1OCCCNC(C)CC (stereo not drawn) | 51.3
80 | c1ccc(-n2c3ccccc3c3ccccc32)cc1 | 22.7
81 | O=C(O)CCN1C(=O)/C(=C/c2ccc(-c3nc4ccccc4s3)o2)SC1=S | 78.4
82 | COc1cc(NC(=O)c2ccccc2)c(OC)cc1NC(=O)CN1CCOCC1 | 69.2
83 | CCCc1cc(C(=O)Nc2ccc(C(C)=O)cc2)no1 | 48.8
